The test system of experiment [1] is lymphatic drainage from tumor-bearing mammary glands. Put plainly: MR mammo-lymphangiography in breast tumor models (BALB-neuT, PT-18 xenograft). The experiment is classed as in vivo, mice. The source says:
The breast-tumor bearing mice were thirty one week-old BALB-neuT mice (n=3) transgenic for the rat HER-2/neu (Erb B2) oncogene under the control of the mouse mammary tumor virus promotor (MMTV). […] BALB-neuT mice were used because of their spontaneous development of bilateral breast cancers and lymph node metastases. Heterozygous female BALB-neuT mice (BALB/c background) develop mammary gland lobule hyperplasia at 5-6 weeks of age that progresses to atypical hyperplasia by 8-9 weeks, followed by in situ carcinoma by 14 weeks, becoming invasive carcinoma usually by 21 week of age. Rovero et al., J. Immunol.; 165:5133-42, 2000. Most metastatic lymph nodes from the mouse mammary pad localize in the neck, lateral thoracic, or axillary region.
Tumor xenografts of PT-18, a murine mast cell line, were introduced into the left mammary pad in athymic nu/nu mice. When 10^7 PT-18 cells were injected in the left mammary pad of 10 athymic nu/nu mice, six mice developed tumor masses in the left axillary lymph nodes within three weeks.
Mice were anesthetized with 1.15 mg sodium pentobarbital (Dainabot, Osaka, Japan), and then injected with 0.15-0.24 μmol Gd/5-8 μL of the PAMAM-G6 contrast agent into normal mammary glands or mammary tissue surrounding a tumor (peritumorally). Dynamic micro-MR images were obtained using a 1.5-Tesla superconductive magnet unit (Signa LX, General Electric Medical System, Milwaukee, Wis.) with a birdcage type coil of 3 cm diameter fixed by a custom made coil holder. Single and double “breast coils” used for imaging breasts in humans are commercially available, for example, from GE Medical Systems (Milwaukee, Wis.) and are routinely available in outpatient MRI centers. The mice were wrapped with gauze to stabilize their body temperature and were placed at the center of the coils. […]

Experiment [2] has as its system axillary lymph nodes and their lymphatic vessels. Put plainly: Dynamic 3D-MR lymphangiography, effect of contrast agent size (Example 4). The experiment is classed as in vivo, athymic nu/nu mice. The conditions noted are these: for Signal intensity within the axillary lymph node (enhancement ratio, lymph node / adjacent muscle): 0.15 μmolGd/5 μL. As for the experimental part: Mice were anesthetized with 1.15 mg sodium pentobarbital (Dainabot, Osaka, Japan) by intraperitoneal injection. Then 0.15 μmolGd/5 μL of all nano-size contrast agents or 0.45 μmolGd/5 μL of Gd-[DTPA]-dimeglumine were injected into normal mammary glands or mammary tissue surrounding a tumor. Dynamic MR images were obtained using a 1.5-Tesla superconductive magnet unit (Signa LX, General Electric Medical System, Milwaukee, Wis.) with a birdcage type coil of 3 cm diameter fixed by a custom-made coil holder. The mice were wrapped with gauze to conserve their body temperature and were placed at the center of the coils.
In order to evaluate the effect of contrast agent molecular size on the ability to visualize the lymphatics and lymph nodes of athymic nu/nu mice, thirty five non-tumor bearing nu/nu mice were divided into seven groups (n=5). The mice were evaluated with 3D-fast spoiled gradient echo (3D-fastSPGR (efgre3d package; Signa Horizon, GE); repetition time/echo time 19.2/7.2 msec; inversion time 47 msec; bandwidth 31.2 kHz, flip angle 30°, 4 excitations; 36 slice encoding steps; scan time 4 minutes 49 seconds) with chemical shift fat-suppression at 6, 12, 18, 24, 30, and 36 minutes post-injection of each contrast agent. The coronal images were reconstructed with 0.6-mm section thickness every 0.3-mm. The field of view was 8×4 cm and the size of the matrix was 512×256. The slice data were processed into 3D images using the maximum intensity projection (MIP) method with the same window and level (window 3500 and level 2100) (Advantage Windows, General Electric Medical System). The enhancement ratio was calculated by taking the average signal intensity in the axillary lymph node and dividing it by the signal intensity in the adjacent muscle.

[3] abbreviates: PT-18 model, peritumoral injection.

This note sets out measurements from patent publication US20060204443A1, “Methods for tumor treatment using dendrimer conjugates” (The Government of the USA as represented by the Secretary …, priority 2005, published 2006).

“Also recorded” adds a separate entry of the source.

For the substance “PAMAM-G6D-(Gd-1B4M)256 dendrimer conjugate”, in experiment [1] (BALB-neuT model), the “Imaging of enlarged metastatic lymph nodes and dilated lymphatic vessels” value is “clearly imaged”. Also, in experiment [1] (setting [3]), the “Enhancement of axillary lymph node tissue with metastatic tumor cells” value is “did not shown enhancement”; the “Lymphatic vessel flowing into the lymph node with a metastatic tumor” value is “dilated and showed enhancement”. The “Visualization of axillary lymph nodes and their lymphatic vessels” value in experiment [2] (6-36 minutes post-injection into mammary gland, listed as G6) is “earliest and most intense opacification of the sentinel lymph nodes; also recorded: visualized at all time points in all 10 mice”. Further, the “Signal intensity within the axillary lymph node (enhancement ratio, lymph node / adjacent muscle)” value in experiment [2] (6 minutes post-injection) is on record as 2.6±0.2. Further, in experiment [2] (12 minutes post-injection), the “Signal intensity within the axillary lymph node (enhancement ratio, lymph node / adjacent muscle)” value was 2.9±0.3.
